From PubChem BioAssay (NCI) come the findings set out here.

Where “and” joins values, the source holds several entries; their conditions need not be identical. Identical values can stand only once.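 Exposure lasted 48 hours, with cells grown in 96-well plates and compounds tested at five concentrations. Here, GI50 denotes the concentration required for 50% inhibition of growth. TGI marks complete inhibition of growth.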 Where only a bound is given, the exact number is not on record here.

Common to all, as to assay: NCI anticancer screen, dose series, 48 h
Assay [1] relates to IGROV1 ovarian.
In assay [2] the test system is PC-3 prostate.
For assay [3], the system named is UACC-257 melanoma.
The subject of assay [4] is UACC-62 melanoma.
Assay [5] has as its system HCT-15 colon.
The subject of assay [6] is OVCAR-8 ovarian.
The subject of assay [7] is SK-OV-3 ovarian.
Assay [8] concerns SK-MEL-5 melanoma.
The subject of assay [9] is NCI-H522 lung.
The test system of assay [10] is OVCAR-5 ovarian.

Turning to `N#Cc1nnc2c3c(-c4ccc(Cl)cc4)c(C#N)c(=O)[nH]c3nn2c1N`, the TGI in assay [1] was found to be 9.65 µM; in [2], 24.5 µM; in [3] it was 38.5 µM; in assay [4], 4.44 µM; in assay [5], 30.9 µM; in assay [6], 14 µM. Also, the TGI is 18.2 µM in assay [7], 19.1 µM in [8], 6.11 µM in [9] and 65.4 µM in [10].

As to `CC(=O)c1nccc2c1c(C)nc1ccccc12`, the TGI in [1], in [2], in assay [3], in [4], in assay [5] and in [6] was over 100 µM throughout. The TGI in assay [7], in assay [8], in [9] and in assay [10] was over 100 µM in each case.

On to `CCOC(=O)Cc1nc2c(=O)[nH]cnc2n1C1OC(COC(C)=O)C(OC(C)=O)C1OC(C)=O` (centres undefined), for which the TGI in assay [1], in assay [2], in [3], in assay [4], in [5] and in [6] was over 100 µM each time. The TGI in [7], in [8], in assay [9] and in assay [10] was over 100 µM in each case.

As for `O=C(Nc1ccccc1)N1N=C(c2ccccc2)C1c1ccccc1` (centres undefined), the TGI in [1] is over 100 µM; in assay [2], 35.3 µM; in assay [3], over 100 µM; in assay [4], 45.7 µM; in assay [5] it was over 100 µM; in assay [6] it was over 100 µM. Also, the TGI was over 100 µM in [7], 54.7 µM in [8], 37 µM in assay [9] and over 100 µM in [10].

For the compound `COc1ccc(C[C@H]2COC(=O)[C@@H]2Cc2cc(OC)c(OC)c(OC)c2)cc1OC`, the TGI in assay [1], in [2], in assay [3], in [4], in assay [5] and in [6] was over 100 µM throughout. For the same compound, the TGI was over 100 µM in [7], over 74.4 µM in assay [8], over 100 µM in [9] and over 100 µM in assay [10].

For `CN1C/C(=C\c2ccccc2[N+](=O)[O-])C(=O)/C(=C/c2ccccc2[N+](=O)[O-])C1`, the TGI is 2.47 µM and 2.1 µM in assay [1]; 6.45 µM and 3.29 µM in assay [2]; 0.481 µM and 3.5 µM in assay [3]; 2.13 µM and 3.79 µM in [4]; 0.527 µM and 0.696 µM in assay [5]; 0.328 µM and 1.85 µM in assay [6]. The TGI in assay [7] was 12.8 µM and 10.8 µM; in assay [8], 2.31 µM and 2.91 µM; in assay [9], 1.05 µM and 0.396 µM; in assay [10], 10.3 µM and 3.87 µM. The GI50 in assay [3] was 0.265 µM and 1.46 µM; in [6], 0.175 µM and 0.517 µM; in [9], 0.437 µM and 0.187 µM; in assay [10], 3.27 µM and 1.05 µM.

As for `Cn1c(=O)c2[nH]c(N/N=C3/SCC(=O)N3Cc3ccccc3)nc2n(C)c1=O`, the TGI in [1], in assay [2], in [3], in assay [4], in assay [5] and in assay [6] was over 100 µM each time. For the same compound, the TGI in assay [7], in assay [8], in [9] and in [10] was over 100 µM in each case.

As for `CN1C(=O)[C@@]2(C=CC3(CC2)OCCO3)c2ccccc21`, the TGI in assay [1], in [2], in assay [3], in [4], in assay [5] and in assay [6] was over 50 µM throughout. The TGI in assay [7] was over 50 µM; in assay [8], over 50 µM; in assay [9], over 32.4 µM; in assay [10] it was over 50 µM.

For the compound `C=C1c2nc3ccccc3n2C=C(c2ccccc2)N1c1ccc(OC)cc1`, the TGI was 35.8 µM in assay [1]; over 100 µM in assay [2]; over 100 µM in assay [3]; 62.2 µM in assay [4]; 20.3 µM in assay [5]; 55 µM in [6]. The TGI is over 100 µM in assay [7], 38.2 µM in [8], 16.1 µM in assay [9] and over 100 µM in assay [10].

As for `C=C(CCC(C(=O)O)C1CCC2(C)C3=C(CCC12C)C1(C)CCC(O)C(C)(C)C1CC3)C(C)C` (centres undefined), the TGI in assay [1] was 63.1 µM; in [2], over 100 µM; in assay [3], over 100 µM; in assay [4], over 100 µM; in assay [5], 68.5 µM; in [6], 47.2 µM. The TGI in assay [7] is over 100 µM; in assay [8] it was over 100 µM; in assay [9], 50.3 µM; in assay [10], over 100 µM.

As for `CC(C)[Si]1(C(C)C)OCC2OC(n3cnc4c(N)ncnc43)C(N)C2O[Si](C(C)C)(C(C)C)O1` (centres undefined), the TGI was 43.3 µM in assay [1]; over 43 µM in assay [2]; 32.4 µM in [3]; 27.4 µM in assay [4]; 23.8 µM in [5]; 25.1 µM in assay [6]. Also, the TGI in [7] was over 53.7 µM; in [8] it was 9.01 µM; in assay [9] it was 26.4 µM; in [10], 67.6 µM.

Take `COC(=O)CCc1ccc2c(c1)CC1(C2)Cc2ccc(CCC(=O)OC)cc2C1`: the TGI in assay [1], in assay [2], in assay [3], in assay [4], in assay [5] and in assay [6] was over 100 µM throughout. Besides, the TGI in assay [7] is over 100 µM; in assay [8], 57.7 µM; in [9], over 100 µM; in assay [10], over 100 µM.

As for `COC1(OC)N=C(N)C2(C#N)/C(=N/N(C)C)CC(C)C12C#N` (centres undefined), the TGI in [1], in [2], in assay [3], in assay [4], in assay [5] and in assay [6] was over 100 µM throughout. The TGI in assay [7], in assay [8], in assay [9] and in assay [10] was over 100 µM each time.
